In paper PMC4752590, “Reciprocal effects of capsaicin and menthol on thermosensation through regulated activities of TRPV1 and TRPM8” (The Journal of Physiological Sciences : JPS, 2015):

Columns and labels:
[1] = target: T1, hTRPM8 (transient receptor potential melastatin 8) (Homo sapiens, UniProt Q7Z2W7); test: whole-cell patch clamp in HEK293T; inhibition of […] menthol-evoked current; assay type: cell-based
T1 construct: gene TRPM8; Full-length

[2] = target: T2, hTRPV1 (transient receptor potential vanilloid 1) (Homo sapiens, UniProt Q8NER1); test: whole-cell patch clamp in HEK293T; inhibition of […] capsaicin-evoked current; assay type: cell-based
T2 construct: gene TRPV1; Full-length
T2 sequence (Q8NER1 whole entry): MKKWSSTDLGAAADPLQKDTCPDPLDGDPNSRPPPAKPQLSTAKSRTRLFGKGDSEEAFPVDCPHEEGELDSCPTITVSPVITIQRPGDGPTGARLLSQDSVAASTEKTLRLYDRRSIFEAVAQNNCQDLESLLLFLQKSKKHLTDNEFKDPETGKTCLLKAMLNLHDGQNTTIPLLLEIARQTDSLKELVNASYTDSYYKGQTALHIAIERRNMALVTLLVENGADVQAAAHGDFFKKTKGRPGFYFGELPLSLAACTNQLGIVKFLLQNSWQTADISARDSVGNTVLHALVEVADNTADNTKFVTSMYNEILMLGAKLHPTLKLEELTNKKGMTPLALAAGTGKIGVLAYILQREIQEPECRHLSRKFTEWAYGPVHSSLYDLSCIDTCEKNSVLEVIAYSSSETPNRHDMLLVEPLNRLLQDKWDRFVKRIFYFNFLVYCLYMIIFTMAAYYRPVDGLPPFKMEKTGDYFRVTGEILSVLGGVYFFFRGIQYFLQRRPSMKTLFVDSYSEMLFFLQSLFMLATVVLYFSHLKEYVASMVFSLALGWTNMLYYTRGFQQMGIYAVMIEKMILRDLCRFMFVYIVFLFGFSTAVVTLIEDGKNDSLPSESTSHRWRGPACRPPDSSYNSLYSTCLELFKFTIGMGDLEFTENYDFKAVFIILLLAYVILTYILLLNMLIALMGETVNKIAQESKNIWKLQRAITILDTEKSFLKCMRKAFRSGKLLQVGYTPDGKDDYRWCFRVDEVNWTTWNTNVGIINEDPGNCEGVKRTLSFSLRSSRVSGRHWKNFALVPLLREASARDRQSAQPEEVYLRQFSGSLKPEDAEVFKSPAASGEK

T1 sequence (Q7Z2W7 whole entry): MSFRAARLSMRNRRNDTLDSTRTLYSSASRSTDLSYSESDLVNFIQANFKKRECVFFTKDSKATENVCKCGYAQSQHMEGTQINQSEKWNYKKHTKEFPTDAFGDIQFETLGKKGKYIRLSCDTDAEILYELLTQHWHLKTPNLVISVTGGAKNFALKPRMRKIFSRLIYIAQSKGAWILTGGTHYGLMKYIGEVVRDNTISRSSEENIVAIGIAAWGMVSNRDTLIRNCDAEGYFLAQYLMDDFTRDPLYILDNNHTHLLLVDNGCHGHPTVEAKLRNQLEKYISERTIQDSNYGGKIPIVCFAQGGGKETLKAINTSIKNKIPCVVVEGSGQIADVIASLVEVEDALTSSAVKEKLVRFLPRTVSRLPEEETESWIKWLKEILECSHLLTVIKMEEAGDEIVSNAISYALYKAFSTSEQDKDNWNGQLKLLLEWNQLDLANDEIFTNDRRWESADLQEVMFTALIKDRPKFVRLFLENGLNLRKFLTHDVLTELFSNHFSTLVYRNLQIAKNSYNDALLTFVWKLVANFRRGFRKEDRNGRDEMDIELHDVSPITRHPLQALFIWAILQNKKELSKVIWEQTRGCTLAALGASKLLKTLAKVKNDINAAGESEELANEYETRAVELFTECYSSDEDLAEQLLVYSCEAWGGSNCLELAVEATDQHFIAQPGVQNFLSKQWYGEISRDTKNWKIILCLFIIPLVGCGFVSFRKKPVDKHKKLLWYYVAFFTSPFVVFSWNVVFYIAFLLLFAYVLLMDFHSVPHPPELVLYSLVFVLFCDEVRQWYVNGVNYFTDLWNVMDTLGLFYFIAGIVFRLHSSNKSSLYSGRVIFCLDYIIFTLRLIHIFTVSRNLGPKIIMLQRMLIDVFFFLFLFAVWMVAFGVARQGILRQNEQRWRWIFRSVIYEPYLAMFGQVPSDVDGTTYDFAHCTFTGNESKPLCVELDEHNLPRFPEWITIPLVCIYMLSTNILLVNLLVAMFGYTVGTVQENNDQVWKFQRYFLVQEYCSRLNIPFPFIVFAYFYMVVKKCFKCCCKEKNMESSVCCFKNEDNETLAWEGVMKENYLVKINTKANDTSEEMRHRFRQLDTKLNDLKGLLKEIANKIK

COc1cc(CNC(=O)CCCC/C=C/C(C)C)ccc1O [capsaicin]
IC50 [1]: 39.9 ± 6.4 µM

CC1CCC(C(C)C)C(O)C1 (centres unmarked) [menthol]
IC50 [2]: 1200 ± 200 µM
